# Patent US20230365558A1, “TETRAHYDROISOQUINOLINE DERIVATIVE AND USE THEREOF” (MEDSHINE DISCOVERY INC., priority 2020, published 2023)
# Read-outs that look alike come from different tables or passages of the source.
# Key:
# [1] = target: PRMT5 enzyme (Homo sapiens (Human), UniProt O14744); experiment: PRMT5 enzyme inhibitory activity assay (LANCE Ultra TR-FRET); assay type: biochemical
# Protocol: Experimental objective: To test the inhibitory effect of compounds on PRMT5 enzyme activity
# Experimental materials: PRMT5 enzyme
# The plate was incubated at 25° C. for 30 min, then added with substrate, and reacted at 25° C. for 90 min. After 90 min, the detection reagent was added to the 384-well plate using PerkinElmer LANCE Ultra TR-FRET standard method to combine with the enzyme-substrate reaction product. […] Raw data were used to calculate the inhibition rate of the test compounds using the following equation: […]
# (§1) The inhibition rates were imported into Excel separately to calculate the inhibition rates of compounds at different concentrations, and then XLfit software was used to plot inhibition curves and calculate relevant parameters, including minimum inhibition rate, maximum inhibition rate and IC50.
# [2] = tested on: Z-138 non-Hodgkin's lymphoma cells; experiment: In vitro anti-proliferation assay of Z-138 cells (CellTiter-Glo, 6 days); assay type: cell-based, human; conditions: read-out: IC50 (nM), in vitro anti-proliferative activity on Z-138 tumor cells
# Protocol: The plate was incubated at 37° C., CO2 and 100% relative humidity for 6 days. Samples were processed using Promega CellTiter-Glo Luminescent Cell Viability Assay Kit (Promega-G7571) standard method, and the luminescent signal was detected on a TECAN Spark®10M plate reader. Raw data were used to calculate the inhibition rate of the test compounds using the following equation: […]
# as §1
# [3] = tested on: MDA-MB-468 human breast cancer cells; experiment: Anti-proliferative activity on MDA-MB-468 cells (CellTiter-Glo, 7 days); assay type: cell-based; conditions: read-out: IC50 (nM), in vitro anti-proliferative activity on MDA-MB-468 tumor cells
# Protocol: CellTiter-Glo (chemiluminescent cell viability detection reagent, purchased from Promega).
# MDA-MB-468 cells were planted in a white 384-well plate with 40 μL of cell suspension per well, which contained 1000 MDA-MB-468 cells. The cell plate was cultured in a CO2 incubator overnight. […] 78 μL of culture medium was added to a middle plate, and then 2 μL of gradient diluted compound per well was transferred to the middle plate according to the corresponding position. After being thoroughly mixed, 10 μL per well was transferred to the cell plate. […] The cell plate was cultured in a CO2 incubator for 7 days. Another cell plate was prepared, and the signal value was read on the day of administration as the maximum value (Max value in the equation below) to participate in data analysis. 10 μL of chemiluminescent cell viability detection reagent per well was added to the cell plate, and the plate was incubated at room temperature for 10 min to stabilize the luminescent signal. A multi-label analyzer was used for reading. After the incubation of the cell plate with the compound was completed, 10 μL of chemiluminescent cell viability detection reagent per well was added to the cell plate, and the plate was incubated at room temperature for 10 min to stabilize the luminescent signal. A multi-label analyzer was used for reading.
# [4] = Pharmacokinetic evaluation in CD-1 mice; conditions: CD-1 mice
# Protocol: Experimental objective: To study the pharmacokinetic parameters of the compounds in CD-1 mice
# Animal experimental design: Male CD-1 mice (28.08 to 29.01 g, 6 to 7 weeks old), purchased from Shanghai Family Planning Research Institute, n=2/group, 4 mice in total; blood collection time points (h): 0.083 (intravenous injection only), 0.25 (intragastric administration only), 0.5, 1, 2, 4, 8, 10 and 24; compound dose by tail vein injection: 1 mg/kg; single dose by intragastric administration: 5 mg/kg; intravenous and intragastric administration vehicles: 20% N,N-dimethylacetamide aqueous solution, 20% hydroxypropyl-β-cyclodextrin aqueous solution, 5% DMSO/50% PEG400/45% water for injection or 10% Solutol/30% PEG400/60% water for injection. All animals had free access to water during the experiment, fasted overnight before administration, and resumed food supply 4 hours after administration. The entire animal experiment complied with the Institutional Animal Care and Use Committee (IACUC) animal welfare.
# Sample collection and storage: After administration, approximately 0.03 mL of blood was collected from the saphenous vein of the mouse at each time point into a pre-frozen commercial EDTA-K2 tube, and placed on wet ice until centrifugation. Blood samples were centrifuged at 4° C., 3,200 g for 10 min. Plasma was collected separately, transferred to a pre-labeled 96-well plate, fast frozen on dry ice, and stored at −70±10° C. until LC-MS/MS analysis.
# Pre-treatment of plasma samples: 3 μL of unknown, standard curve, QC, diluted QC and single and double blank samples were taken and placed in 1.5 mL tubes, and 60 μL of internal standard solution (internal standard: Labetalol 100 ng/mL acetonitrile solution, double blank with the same volume of pure acetonitrile) was added. The samples were vortexed for at least 15 seconds, and centrifuged at 4° C., 12,000 g for 15 min. 50 μL of the supernatant was taken and placed on a clean 96-well plate, and 200 μL of 70% acetonitrile was added. The plate was vortex at 800 rpm for 10 min, and centrifuged at 4° C., 3,220 g for 5 min. 2.0 μL of the supernatant was taken for LC-MS/MS analysis. 10-fold sample dilution procedure: 2 μL of the sample was added to 18 μL of blank matrix; 2-fold sample dilution procedure: 2 μL of the sample was added to 2 μL of blank matrix. Plasma was processed in the same manner as undiluted samples. The linear range was 4.00 to 6000 nM. Plasma concentrations would be analyzed with Triple Quad 6500 Plus, and pharmacokinetic parameters would be calculated with Phoenix WinNonlin 6.3.
# [5] = tested on: human mantle cell lymphoma Z-138 cells; conditions: Z-138 xenograft; for T/C (%) (Day 21) / TGI (%) (Day 21): 80 mg/kg PO BID × 21, Day 21; for RTV (Day 21) / Tumor volume (Day 21): 80 mg/kg PO BID × 21, Day 21, Mean ± SEM; for Tumor volume (Day 21) / Tumor volume (Day 0): n = 6; for Tumor volume (Day 0): Day 0 (at grouping), Mean ± SEM
# [6] = tested on: human breast cancer MDA-MB-468 cells; experiment: Subcutaneous xenograft tumor BALB/c mouse model of human breast cancer MDA-MB-468 cells; assay type: in vivo; conditions: MDA-MB-468 xenograft
# Protocol: Experimental materials: 6 to 8 weeks old Balb/c female mice
# Routine digestion with trypsin-EDTA was performed twice a week for passaging.
# Group administration was started when the average tumor volume reached 130 mm^3.
# [7] = Hygroscopicity by dynamic vapor sorption (DVS); assay type: physicochemical; conditions: 25° C./80% RH
# Protocol: (3) Dynamic Vapor Sorption (DVS) Method
# Detailed DVS instrument information and parameters are shown in Table 5, and the classification of hygroscopicity evaluation is shown in Table 6:
# Instrument: SMS DVS intrinsic Dynamic Vapor Sorption. The crystal form A of compound 46a (about 10 mg) was taken and placed in a DVS sample tray for testing.
# [8] = injection administration (1 mg/kg)
# [9] = 100 mg/kg PO BID × 4 W, Day 28, Mean ± SEM
# Sequence of PRMT5 enzyme (O14744 whole entry): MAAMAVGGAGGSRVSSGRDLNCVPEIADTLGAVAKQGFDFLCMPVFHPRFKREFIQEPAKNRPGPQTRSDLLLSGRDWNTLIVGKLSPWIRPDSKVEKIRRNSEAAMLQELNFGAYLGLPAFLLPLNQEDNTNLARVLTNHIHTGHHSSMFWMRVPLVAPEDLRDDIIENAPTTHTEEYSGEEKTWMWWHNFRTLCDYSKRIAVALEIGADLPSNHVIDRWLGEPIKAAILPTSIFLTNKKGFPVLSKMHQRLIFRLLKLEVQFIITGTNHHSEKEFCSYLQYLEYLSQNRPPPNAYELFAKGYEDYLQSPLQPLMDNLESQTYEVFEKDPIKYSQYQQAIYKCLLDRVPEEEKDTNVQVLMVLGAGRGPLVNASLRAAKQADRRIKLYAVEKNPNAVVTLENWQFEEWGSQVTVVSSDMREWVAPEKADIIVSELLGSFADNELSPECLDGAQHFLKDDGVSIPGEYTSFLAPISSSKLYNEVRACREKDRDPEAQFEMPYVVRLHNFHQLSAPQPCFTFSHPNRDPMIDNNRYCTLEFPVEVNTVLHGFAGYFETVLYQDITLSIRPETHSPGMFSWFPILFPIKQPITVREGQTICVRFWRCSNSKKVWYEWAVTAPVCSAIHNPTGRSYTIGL
# Sequence of PRMT5 enzyme (Q9BQA1 whole entry partner): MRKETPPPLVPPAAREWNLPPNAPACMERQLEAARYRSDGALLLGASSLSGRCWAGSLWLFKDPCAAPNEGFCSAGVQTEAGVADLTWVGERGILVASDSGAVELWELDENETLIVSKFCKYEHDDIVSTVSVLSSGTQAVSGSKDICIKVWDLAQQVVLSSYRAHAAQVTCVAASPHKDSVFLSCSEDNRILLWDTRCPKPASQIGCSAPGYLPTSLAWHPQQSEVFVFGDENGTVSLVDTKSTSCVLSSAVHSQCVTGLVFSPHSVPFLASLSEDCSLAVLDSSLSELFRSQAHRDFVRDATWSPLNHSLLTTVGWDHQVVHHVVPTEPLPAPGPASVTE
smiles,measurement,setting,value
O=C(NC[C@H](O)CN1CCc2ccccc2C1)c1cnc2c(c1)NC(=O)C1(CC1)C2 [Compound 39],IC50,[1],34 nM
same,IC50,[2],12 nM
same,IC50,[3],12 nM
same,Clearance rate CL,[4]; [8],33.6 mL/min/kg
same,Concentration integral AUC,[4]; [8],1.214 µM·h
same,Half-life T1/2,[4]; [8],33 min
same,Bioavailability F,[4]; oral administration (5 mg/kg),20.0%
same,Concentration integral AUC,[4]; oral administration (5 mg/kg),1.208 µM·h
same,T/C (%) (Day 21),[5],12.1%
same,TGI (%) (Day 21),[5],94.8%
same,RTV (Day 21),[5],1.66 + 0.42
same,Tumor volume (Day 21),[5],179 + 42 mm^3
same,Tumor volume (Day 0),[5],108 ± 7 mm^3
C[C@H](NC(=O)c1cnc2c(c1)NC(=O)C1(CC1)O2)[C@H](O)CN1CCc2ccccc2C1 [Compound 46a],IC50,[1],58 nM
same,IC50,"[2]; Homo sapiens, Z-138, 144 h",11 nM
same,IC50,"[3]; Homo sapiens, 168 h",5 nM
same,T/C (%),"[6]; 100 mg/kg PO BID × 4 W, Day 28",33.29%
same,TGI (%),"[6]; 100 mg/kg PO BID × 4 W, Day 28",107.01%
same,RTV (Day 28),[6]; [9],0.88 ± 0.06
same,Tumor volume (Day 28),[6]; [9],115 ± 13.8 mm^3
same,Tumor volume (Day 0),"[6]; Day 0 (at grouping), Mean ± SEM",130 ± 10.5 mm^3
same,T/C (%) (Day 21),[5],1.7%
same,TGI (%) (Day 21),[5],105.8%
same,RTV (Day 21),[5],0.24 + 0.11
same,Tumor volume (Day 21),[5],27 + 13 mm^3
same,Tumor volume (Day 0),[5],107 ± 8 mm^3
C[C@H](NC(=O)c1cnc2c(c1)NC(=O)C1(CC1)O2)[C@H](O)CN1CCc2ccccc2C1 [crystal form A of compound 46a],Hygroscopicity classification,[7],slightly hygroscopic
same,moisture absorption weight gain ΔW %,[7],0.8%
